Legend:
[1] = system: HH, HUT78, Jurkat E6.1 and CCRF-HSB-2 cells; assay: Cell viability screen of TCL cells (flow cytometry with Sytox Green); type: cell-based, human; settings: HUT78, Jurkat E6.1, CCRF-HSB-2, with and without 1 μM EPZ 24 hrs, then 10 days
Experimental: (§1) Sezary syndrome (SS) cells HH (FIG. 12A) and HUT78 (FIG. 12B), and T-cell acute lymphoblastic leukemia (T-ALL) cells Jurkat E6.1 (FIG. 12C) and CCRF-HSB-2 (FIG. 12D) were grown with and without 1 μM EPZ for 24 hrs. Indicated small molecule compounds were added in indicated concentrations and cells were grown for an additional 10 days.
To test the idea that restoring the ability of cells to de-condense nascent chromatin may enable reprogramming of TCLs, a two-step induction was devised: Cells were first treated with the inhibitors of the EZH1/2 HMTs, and then induced with small molecule ligands known to activate specific TFs. […] A library of small molecules was compiled that included ligands for nuclear hormone receptors, cytokines, ligands for GPCRs, and small molecules that are used to reprogram mature cells into pluripotent cells (FIG. 11). Since different ligands may induce reprogramming of leukemic cells into different lineages, it was not possible to use specific differentiation markers at initial stages of these screens, and therefore cell viability was used as a readout for the initial screens. The earliest effects on cell viability were observed after 5 days of treatment, and therefore screens for cell viability (flow cytometry with Sytox green) were performed at days 8-11. […]

[2] = system: AML cell lines THP-1, K562 and KG-1a; assay: Cell viability of AML cell lines (flow cytometry with Sytox Green); type: cell-based, human; settings: THP-1, K562, KG-1a; performed as in FIG. 12
Experimental: as §1
The assays were performed as described in FIG. 12.
Similar experiments were performed with the AML cell lines THP-1, K562 and KG-1a.

MEF2 = assay: CAA: binding of MEF2 to nascent chromatin in CCRF-HSB-2 cells; type: cell-based, human; settings: 5 μM ISX9 6 hr, with or without 0.5 μM EPZ pre-treatment
Experimental: (§2) FIGS. 15A-15C illustrate the effect of EPZ and small molecule ligand treatment on TF binding. […] Cells were immunostained with antibodies to LXRa (left), and GR (right). Nuclei stained by DAPI are shown in the lower panel. […] In FIG. 15C, T-ALL CCRF-HSB-2 cells were untreated or treated for 6 hr with 5 μM of ISX9, or pre-treated with 0.5 μM EPZ and then treated for 6 hr with 5 μM of ISX9. In FIG. 15B and FIG. 15C, DNA was labeled with EdU for 15 min. In FIG. 15B, CAA was performed with antibodies to H3K27me3 (left), LXRa (middle), and GR (right). In FIG. 15C, with antibody to MEF-2. PLA signals are shown in the lower panel. The schemes above show the state of condensation of nascent chromatin.
(§3) Chromatin assembly assay: Cells were grown on chamber slides, pulse-labeled with 5 μM EdU and fixed at room temperature with 4% formaldehyde in PBS for 15 min, washed with PBS, and permeabilized with 0.3% Triton for 15 min. Cells were subjected to Click-iT reaction with biotin-azide for 30 min. […] The results of CAA experiments shown in FIG. 1A were quantified by counting the number of PLA signals per EdU-labeled nuclei in 50 cells of each of the three independent experiments. The nature of the results in the rest of the figures alleviated the need to quantify the results of these assays.

THP-1 Luc+ cells = assay: THP-1 Luc+ xenograft AML model, bioluminescence; type: in vivo; settings: NRG mice, THP-1 Luc+ 1×10^6/mouse; 30 days post injection
Source text: NRG were mice injected with THP-1 Luc+ cells, an especially aggressive AML line (1×10^6/mouse). 14 days post-injection, mice were imaged and left untreated (Controls), treated with EPZ alone, Dexa alone and ISX9 alone for 16 days, or pre-treated (2 days) with EPZ and co-treated with Dexa and EPZ (Dexa+EPZ) or with ISX9 and EPZ (ISX9+EPZ) for 14 additional days.

all tested leukemias = assay: In vitro assays with cultured leukemic cells of various leukemia types; type: cell-based; settings: cell lines of various leukemia types
Experimental: Leukemic cells from patients can be established in short-term culture for about 10 days. During this time, these cells are screened for the best possible reprogramming agent, which causes reprogramming (e.g. differentiation), loss of cell viability and apoptosis. […] These assays include cell viability, apoptosis induction, and examining cell differentiation markers. Thus, within 7-10 days, the most efficient molecules are determined, which induce reprogramming of leukemic cells, which leads to inhibition of cell viability and induction of apoptosis in individual patients. Indeed, similar studies using a number of different cell lines of various leukemia types have seen differences in responses to various reprogramming agents (FIG. 14).

EZH2 = EZH2 (Homo sapiens, UniProt Q15910); settings: also inhibits other methyltransferases; cited from earlier work
H3K27me3 [3] = assay: Chromatin assembly assay (CAA): H3K27me3 on nascent DNA of CD34+ HPCs; type: cell-based, human; settings: CD34+ HPCs exposed to GSKJ4 during 12 hr induction; EdU 15 min, chased to 1 hr
Source text: (§4) FIGS. 5A-5B illustrate that fast accumulation of post-replicative H3K27me3 leads to decreased recruitment of lineage-determining TFs to DNA. In FIG. 5A, CD34^+ cells were induced toward myeloid differentiation with G-CSF (left) or M-CSF (middle), or erythroid differentiation with EPO (right) for 12 hr. During the induction period cells were left untreated (upper panels) or treated with the GSKJ4 inhibitor of the H3K27me3 de-methylases (KDMs) UTX and JMJD3 (lower panels). DNA was pulse-labeled with EdU for 15 min and chased to 1 hr. CAA was performed between nascent DNA (biotin) and H3K27me3 (left columns) or (in the right columns) C/EBPa (left), PU.1 (middle) or GATA-1 (right). […] In FIG. 5B, quantification of the results of CAA experiments was determined by counting the number of PLA signals per EdU-labeled nuclei in 50 cells/each of the three independent experiments.
as §3, with “15” for “15 min. Cells were subjected to Click-iT reaction with biotin-azide for 30”, “assays. […]” for “assays.”

C/EBPa = assay: CAA: recruitment of C/EBPa to nascent DNA in CD34+ HPCs; type: cell-based, human; settings: CD34+ HPCs induced with G-CSF 12 hr
Source text: as §4
as §3, with “15” for “15 min. Cells were subjected to Click-iT reaction with biotin-azide for 30”, “assays. […]” for “assays.”

PU.1 = assay: CAA: recruitment of PU.1 to nascent DNA in CD34+ HPCs; type: cell-based, human; settings: CD34+ HPCs induced with M-CSF 12 hr
Source text: as §4
as §3, with “15” for “15 min. Cells were subjected to Click-iT reaction with biotin-azide for 30”, “assays. […]” for “assays.”

GATA-1 = assay: CAA: recruitment of GATA-1 to nascent DNA in CD34+ HPCs; type: cell-based, human; settings: CD34+ HPCs induced with EPO 12 hr
Source text: as §4
as §3, with “15” for “15 min. Cells were subjected to Click-iT reaction with biotin-azide for 30”, “assays. […]” for “assays.”

T-bet = assay: CAA: recruitment of T-bet to nascent DNA in T cells (Th1); type: cell-based; settings: Th1 pathway, 10 μM GSKJ4 for 5 hr
Experimental: (§5) FIG. 6 illustrates that fast accumulation of post-replicative H3K27me3 leads to decreased recruitment of lineage-determining TFs to DNA during differentiation of T cells. Naive T cells were primed for 12 hr and stimulated to Th1 (left, middle) or Th2 (right) pathways. Cells were untreated or treated with 10 μM of GSKJ4 for 5 hr, labeled with EdU for 15 min (left) or pulse-labeled for 1 hr (middle and right). CAA was performed with antibodies to H3K27me3 (left), T-bet (middle) and GATA3 (right).
as §3
(§6) New approaches to study the fate of chromatic-associated proteins following DNA replication were developed. […] Cells can be then examined for specificity of interactions (e.g. specific PLA signals are detected only in EdU-labeled nuclei), and by assessing tissue specificity using relevant protein markers. […]

GATA3 = assay: CAA: recruitment of GATA3 to nascent DNA in T cells (Th2); type: cell-based; settings: Th2 pathway, 10 μM GSKJ4 for 5 hr
Experimental: as §5, §3, §6

HL-60 cells = settings: an APL cell line; cited from earlier work
H3K27me3 [4] = assay: CAA: H3K27me3 on nascent chromatin of TCL cells (HUT78); type: cell-based, human
Experimental: FIG. 10B: HUT78 cells were induced with 0.2 μM of RXR for the indicated times. Cells were labeled with EdU for 15 min, and CAA was performed between Biotin (EdU) and H3K27me3 antibody. PLA only is shown in the lower panel.
FIGS. 15A-15C illustrate the effect of EPZ and small molecule ligand treatment on TF binding. […] Cells were immunostained with antibodies to LXRa (left), and GR (right). Nuclei stained by DAPI are shown in the lower panel. […] In FIG. 15C, T-ALL CCRF-HSB-2 cells were untreated or treated for 6 hr with 5 μM of ISX9, or pre-treated with 0.5 μM EPZ and then treated for 6 hr with 5 μM of ISX9. In FIG. 15B and FIG. 15C, DNA was labeled with EdU for 15 min. […]
as §3, with “15” for “15 min. Cells were subjected to Click-iT reaction with biotin-azide for 30”
New approaches to study the fate of chromatic-associated proteins following DNA replication were developed. […] Reliable pulse-chase EdU labeling in cells can be detected from 3-5 min to several hours. […]

LXRa [5] = assay: Immunostaining of LXRa localisation in HUT78 cells; type: cell-based, human; settings: 1 μM GW3965, untreated: mostly in the cytoplasm
Experimental: as §2

LXRa [6] = assay: CAA: binding of LXRa to nascent DNA in HUT78 cells; type: cell-based, human; settings: 6 hr 1 μM GW3965, no EPZ
Experimental: as §2, §3

[7] = system: Y641 and A677 mutants of EZH2; settings: cited from earlier work
GR target genes = assay: qRT-PCR of differentiation-associated (GR target) genes in THP-1, SEM and HH cells; type: cell-based, human; settings: 24 hr
Experimental: Graphs show induction of transcription of GR target genes. […] Graphs show induction of transcription of GR target genes. FIG. 17C The T-ALL HH cells were untreated (Untr) or treated with 1 μM EPZ for 24 hr. […] Bottom graph, cells were then treated with 1 μM of ISX-9 for 72 hr or with combinations of EPZ and ISX9. Analysis by qRT-PCR.
Gene expression analysis by RT-qPCR: Total RNA was isolated directly from freshly collected hESCs with TRIzol and for mESCs with High Pure RNA Isolation Kit. cDNA was synthesized by using 1 μg total RNA in a 20 μL reaction with Superscript III and oligo (dT) for hESC or random hexamers (Life Tech) for mECS. After reverse transcription was complete, one microliter of RNase H was added to each reaction tube, and the tubes were incubated for 20 min at 37° C. before proceeding to PCR. Real-time PCR was carried out on a 7500 Real-Time PCR System using the 2× Power SYBR green PCR master mix. GAPDH was used as an internal control. All PCR products were checked by running an agarose gel for the first time and by doing dissociation assay every time to exclude the possibility of multiple products. PCR analyses were conducted in triplicate for each sample.
Graphs show induction of transcription of GR target genes. […] Graphs show induction of transcription of GR target genes. […]

Sequence of EZH2 (Q15910 whole entry): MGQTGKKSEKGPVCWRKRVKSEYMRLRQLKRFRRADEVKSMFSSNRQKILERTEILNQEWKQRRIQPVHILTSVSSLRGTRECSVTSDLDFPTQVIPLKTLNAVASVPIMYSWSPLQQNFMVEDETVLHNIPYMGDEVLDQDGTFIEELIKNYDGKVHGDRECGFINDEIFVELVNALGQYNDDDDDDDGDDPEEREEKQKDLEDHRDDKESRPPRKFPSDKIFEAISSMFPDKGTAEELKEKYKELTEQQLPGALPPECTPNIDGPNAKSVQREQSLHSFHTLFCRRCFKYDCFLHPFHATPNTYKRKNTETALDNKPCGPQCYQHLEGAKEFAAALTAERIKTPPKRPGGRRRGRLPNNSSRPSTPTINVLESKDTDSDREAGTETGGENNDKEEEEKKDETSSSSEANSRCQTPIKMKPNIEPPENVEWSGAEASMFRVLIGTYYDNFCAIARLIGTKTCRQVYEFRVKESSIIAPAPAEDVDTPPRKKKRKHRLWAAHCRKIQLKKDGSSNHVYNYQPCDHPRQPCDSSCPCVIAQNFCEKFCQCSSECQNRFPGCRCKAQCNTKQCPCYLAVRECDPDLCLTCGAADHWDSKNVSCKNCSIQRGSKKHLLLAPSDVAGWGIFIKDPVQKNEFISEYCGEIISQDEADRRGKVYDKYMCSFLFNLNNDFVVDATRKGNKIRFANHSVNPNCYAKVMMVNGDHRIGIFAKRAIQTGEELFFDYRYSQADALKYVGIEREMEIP
Sequence of EZH2 (O75530 whole entry partner): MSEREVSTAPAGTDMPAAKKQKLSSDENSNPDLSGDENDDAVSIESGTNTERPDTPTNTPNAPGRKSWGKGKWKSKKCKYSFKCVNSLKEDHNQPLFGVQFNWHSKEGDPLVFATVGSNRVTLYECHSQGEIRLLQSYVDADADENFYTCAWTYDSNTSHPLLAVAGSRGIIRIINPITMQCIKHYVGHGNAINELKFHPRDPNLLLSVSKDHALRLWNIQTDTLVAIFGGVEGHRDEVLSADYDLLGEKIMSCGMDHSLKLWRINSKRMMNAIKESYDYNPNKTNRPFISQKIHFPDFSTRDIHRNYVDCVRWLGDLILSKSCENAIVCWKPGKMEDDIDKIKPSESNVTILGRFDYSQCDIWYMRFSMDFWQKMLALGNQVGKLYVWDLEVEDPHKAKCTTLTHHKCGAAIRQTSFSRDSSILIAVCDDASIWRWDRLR
Sequence of EZH2 (Q15022 whole entry partner): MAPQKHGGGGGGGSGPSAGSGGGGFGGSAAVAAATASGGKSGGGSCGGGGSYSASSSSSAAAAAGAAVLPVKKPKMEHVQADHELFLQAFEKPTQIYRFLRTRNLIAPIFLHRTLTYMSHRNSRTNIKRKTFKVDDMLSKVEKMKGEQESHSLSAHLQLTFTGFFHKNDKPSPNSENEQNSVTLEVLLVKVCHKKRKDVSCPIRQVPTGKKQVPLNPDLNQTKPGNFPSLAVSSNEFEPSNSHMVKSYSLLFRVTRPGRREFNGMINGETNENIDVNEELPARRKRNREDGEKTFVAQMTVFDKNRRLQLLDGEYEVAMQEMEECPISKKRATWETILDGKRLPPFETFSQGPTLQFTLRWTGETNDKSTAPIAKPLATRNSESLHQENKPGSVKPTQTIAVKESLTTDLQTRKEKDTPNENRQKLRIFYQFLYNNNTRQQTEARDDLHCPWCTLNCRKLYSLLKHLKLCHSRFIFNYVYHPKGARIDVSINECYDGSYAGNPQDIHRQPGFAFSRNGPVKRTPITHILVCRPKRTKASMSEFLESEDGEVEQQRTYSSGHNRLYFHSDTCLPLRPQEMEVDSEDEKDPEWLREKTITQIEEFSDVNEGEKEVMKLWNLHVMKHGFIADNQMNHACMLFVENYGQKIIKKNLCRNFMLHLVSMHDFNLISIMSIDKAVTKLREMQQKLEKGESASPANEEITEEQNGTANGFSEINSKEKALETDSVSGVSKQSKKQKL

Compound: O=C(NC1CC1)c1cc(-c2cccs2)on1 [ISX-9]
- inhibition of cell viability of TCL cells [1]: effective
- inhibition of cell viability of AML cell lines [2]: induced inhibition of cell viability in all AML cell lines
- binding of activated MEF2 to nascent chromatin (MEF2): occurs only following de-condensation of chromatin by EPZ
- THP-1 cell growth / outgrowth (bioluminescence fold-changes) vs untreated control animals (THP-1 Luc+ cells): little effect
- efficiency as reprogramming agent across leukemias (all tested leukemias): efficient in all tested leukemias

Compound: Nc1nccc2c1ncn2[C@@H]1C=C(CO)[C@@H](O)[C@H]1O [DZNep, 3-deazaneplanocin A]
- specificity to EZH2 (EZH2): not specific to EZH2

Compound: CCOC(=O)CCNc1cc(N2CCc3ccccc3CC2)nc(-c2ccccn2)n1 [GSKJ4]
- accumulation of H3K27me3 following DNA replication (H3K27me3 [3]): strongly increased
- recruitment of the TF C/EBPa (C/EBPa): strongly inhibited
- recruitment of the TF PU.1 (PU.1): strongly inhibited
- recruitment of the TF GATA-1 (GATA-1): strongly inhibited
- recruitment of T-bet to nascent DNA (T-bet): inhibition
- recruitment of GATA3 to nascent DNA (GATA3): inhibition

Compound: CC1=C(/C=C/C(C)=C/C=C/C(C)=C/C(=O)O)C(C)(C)CCC1 [ATRA, all-trans retinoic acid]
- terminal differentiation of cells (HL-60 cells): around 90%

Compound: CC[C@H](C)n1cc(C)c2c(C(=O)NCc3c(C)cc(C)[nH]c3=O)cc(-c3ccc(N4CCNCC4)nc3)cc21 [GSK126]
- levels of global and nascent chromatin marked with H3K27me3 (H3K27me3 [4]; 24 hr, 0.5-1 μM range, tested by CAA): marked decrease

Compound: O=C(O)Cc1cccc(OCCCN(Cc2cccc(C(F)(F)F)c2Cl)CC(c2ccccc2)c2ccccc2)c1 [GW3965]
- localisation of LXRa after induction with ligand (LXRa [5]): exclusively nuclear
- binding of LXRa to DNA, ligand alone (LXRa [6]): not able to bind to DNA

Compound: Cc1cc(C)c(CNC(=O)c2cc(-c3ccc(CN4CCOCC4)cc3)cc3c2cnn3C2CCCC2)c(=O)[nH]1 [EPZ005687]
- inhibition of the Y641 and A677 mutants of EZH2 [7]: can also inhibit

Compound: arsenic trioxide [ATO]
- terminal differentiation of cells (HL-60 cells): around 90%

Compound: C[C@]12C=CC(=O)C=C1CC[C@@H]1[C@@H]2C(=O)C[C@@]2(C)[C@H]1CC[C@]2(O)C(=O)CO [Prednisone]
- level of H3K27me3 on 15 min-labeled nascent DNA (H3K27me3 [4]; HUT78 cells, 0.2 μM, through 10 hr of induction): remained unchanged
- expression of differentiation-associated genes vs untreated cells (GR target genes): no statistical difference
